The results in this text go back to patent publication US20240272164A1, “METHODS FOR CLASSIFYING TUMORS AND USES THEREFOR” (THE UNIVERSITY OF QUEENSLAND, priority 2015, published 2024).

SMILES strings stand for the structures. “Also recorded” adds a separate entry of the source.

What all share (format): cell-based
The test system of data set [1] is A431 cells. Briefly: EGF-Alexa488 uptake and clathrin localisation, confocal and 3D-SIM super-resolution microscopy. The settings on record: for Internalization of EGF-Alexa488: 30 min drug, EGF-Alexa488 last five minutes, confocal, FIG. 7A-C; for Clathrin recruitment to the plasma membrane: 3D-SIM volume projections, FIG. 7G-I; for Effect on HER1 (EGFR) at the plasma membrane: Pitstop-2 30 μM or chlorpromazine 18 μM, 30 min.
Procedure: To discuss the experiments in more detail, A431 cells were incubated in serum-free medium with no drugs (control), or with Pitstop®-2 for 30 min or chlorpromazine for 30 min. During the last five minutes of treatment EGF-Alexa488 was added to monitor CME, after which cells were fixed and imaged (FIG. 7A-C).
Volume projections of a small area of the cell periphery were used to examine the recruitment of clathrin and EGF-positive sites to the cell periphery (FIG. 7G-I). The angle of 3D projection was chosen to show the upper surface of the cell plasma membrane. Points of co-localisation between EGF-Alexa^488 and Alexa^594-conjugated antibodies (which detects clathrin) are rare in 3D-SIM due to the capture of frequency information differences between the 488 and 594 excitation/emission spectra. […] A clathrin punctum was defined as being recruited an HER1-positive site when there was 50 nm or less distance between the clathrin and EGF puncta.
A431 cells were seeded on coverslips in 12-well plates and incubated overnight to reach 80% confluence for super-resolution microscopy based on structured illumination. After a 3 hour-serum starvation the cells were treated with 30 μM of Pitstop®-2 or 18 μM chlorpromazine for 30 min, followed by 5 min uptake with EGF-Alexa488 (100 ng/ml). The uptake of EGF was stopped by washing three times in ice cold PBS. The cells were fixed in 4% paraformaldehyde/phosphate-buffered saline for 30 min and washed three times in phosphate-buffered saline before DAPI staining for 30 min. The coverslips were mounted on slides in Prolong Gold (Life technologies) for confocal analysis or glycerol-based imaging media for three dimensional structured illumination microscopy (3D-SIM). Confocal images were acquired using a Zeiss 510 Meta confocal with a 63 Å˜ objective. Reconstructing the subsequent images after modulating the illumination pattern produces super-resolution images with double the lateral and axial resolution and up to 10 μm into the cell. 3D-SIM images were captured on a Deltavision OMX V3 Imaging System (Applied Precision), EMCCD cameras (CascadeII 512×512 Photometrics) and using a 60×1.4-NA UPlanSApo oil-immersion objective (Olympus) with oil of a refractive index of 1.518. […] Images were computationally reconstructed using Deltavision SoftWorX6.0 Beta 19 software (Applied Precision).

Data set [2] deals with Cetuximab-sensitive or resistant cell lines. The data set is described as follows: ADCC in response to Cetuximab with endocytosis inhibitors. To be noted: either Cetuximab-sensitive or resistant cell lines. How it is done: If only the plasma membrane levels of HER1 determine ADCC response then we would expect that any pharmacological blockade of HER1 internalization would be expected to enhance ADCC. Thus, numerous endocytosis inhibitors were tested to investigate this hypothesis.

Data set [3] concerns breast cancer cell lines. The source says:
Dyngo4a, a small molecule inhibitor of dynamin, was used to block dynamin-mediated endocytosis (Mccluskey et al., 2013) and added into the immune-dependent cytotoxicity assays. […] However, the specific cell death of BT474 cells was not enhanced following treatment with Dyngo4a (FIG. 4C).

Take `CN(C)CCCN1c2ccccc2Sc2ccc(Cl)cc21` [chlorpromazine]: in data set [1] (A431 cells), the “Internalization of EGF-Alexa488” value is recorded as “no internalization” and the “Clathrin recruitment to the plasma membrane” value is “does not inhibit clathrin recruitment”. Further, the “Effect on HER1 (EGFR) at the plasma membrane” value in data set [1] was “clustering and recruitment of HER1 into CCVs; also recorded: abundant EGFR was trapped at the cell membrane”.

For `O=C1NC(=NS(=O)(=O)c2cccc3ccccc23)S/C1=C\c1ccc(Br)cc1` [Pitstop®-2], in data set [1] (A431 cells), the “Internalization of EGF-Alexa488” value is on record as “no internalization” and the “Clathrin recruitment to the plasma membrane” value is “clathrin was not recruited”. The “Inhibition of CCV (clathrin coated vesicle) formation” value in data set [1] (A431 cells, confocal and 3D-SIM) is listed as “inhibits CCV formation”. Also, the “Effect on HER1 (EGFR) at the plasma membrane” value in data set [1] is “caused HER1 to be trapped on the plasma membrane”. Also, in data set [2], the “Effect on ADCC in response to Cetuximab” value is recorded as “did not increase ADCC”.

Regarding `O=C(N/N=C/c1cc(O)c(O)cc1O)c1cc2ccccc2cc1O` [Dyngo4a], the “Toxicity of Dyngo4a” value in data set [3] was “non-toxic”.
